“Also recorded” adds a separate entry of the source. Where two headings read alike, the source gives them in different places.
Assays:
[1] = biological target: T1, hM3DREADD in Tac2+ neurons (Homo sapiens, UniProt P20309, A239G/Y149C); experiment: Behavioral assays in group housed Tac2-Cre mice, CNO activation (hM3DREADD) with or without Tac2 cDNA; assay type: in vivo, mouse
T1 construct: host or cells: Tac2+ neurons of group-housed Tac2-Cre mice, transduced in vivo by intravenous AAV-PHP.B-hSyn-DIO-hM3D-mCherry, with or without the Tac2 cDNA virus
Experimental: The AAV-hSyn-DIO-Tac2-P2A-mCherry, AAV-hSyn-DIO-hM3D-mCherry, and AAV-hSyn-DIO-mCherry recombinant AAV genomes were separately packaged into the AAV-PHP.B capsid by triple transfection of HEK293T cells and purified with iodixanol step gradients as previously described (Deverman et al., 2016; incorporated by reference in its entirety). 5×10^11 vector genomes (vg) of each virus were administered intravenously (via the retro-orbital sinus) to Tac2-Cre animals individually or in combination. To equalize the amount of virus given to each mouse, 5×10^11 vg of AAV-PHP.B-hSyn-DIO-mCherry was administered to each animal to bring the amount of virus up to the amount injected in the double Tac2^+ hM3DREAAD group. Each animal received a total vector dose of 1×10^12 vg.
Mice were administered the Nk3R antagonist osanetant (Axon Medchem, Axon 1533) either systemically or intra-brain region. Osanctant was dissolved in saline with 0.1% Tween 20 (vehicle). For systemic administration mice received an intraperitoneal (i.p.) injection (5 mg/kg) 20 minutes prior to behavioral testing. For microinfusions, guide cannulas were removed from mice and replaced with injector cannulas (Plastics One), which protruded 0.5 mm from the tip of the guide cannula. Injectors were attached to 5 μl Hamilton syringes with PE tubing (Plastics One) and mounted on a microinfusion pump (Harvard Apparatus) for controlled infusion of osanetant (0.3 μl vehicle with 375 ng dose per site injected over 6 minutes). For experiments using systemic administration of clozapine-N-oxide (CNO), CNO (Enzo Life Sciences-Biomol, BML-NS105-0005) was dissolved in saline (9 g/L NaCl) and injected (i.p.) at 5 mg/kg for hM4DREADD silencing or 2 mg/kg for hM3DREADD activation 20 minutes prior to behavioral testing. CNO was also administered chronically in drinking water (0.5 mg CNO/100 ml water).
These viruses were intravenously injected (individually or in combination) into GH Tac2-Cre mice (FIGS. 14A-T). […]

[2] = biological target: T2, Nk3R (Mus musculus, UniProt P47937); experiment: SIS mice: overall behavioral effects and return to group housing, osanetant; assay type: in vivo; set-up: from tissue; host or cells: Living mice (wild-type C57Bl6/N males, Charles River); conditions: for fighting/aggression on return of SIS mice to housing with cagemates: osanetant during or during or following SIS
T2 sequence (P47937 1-452): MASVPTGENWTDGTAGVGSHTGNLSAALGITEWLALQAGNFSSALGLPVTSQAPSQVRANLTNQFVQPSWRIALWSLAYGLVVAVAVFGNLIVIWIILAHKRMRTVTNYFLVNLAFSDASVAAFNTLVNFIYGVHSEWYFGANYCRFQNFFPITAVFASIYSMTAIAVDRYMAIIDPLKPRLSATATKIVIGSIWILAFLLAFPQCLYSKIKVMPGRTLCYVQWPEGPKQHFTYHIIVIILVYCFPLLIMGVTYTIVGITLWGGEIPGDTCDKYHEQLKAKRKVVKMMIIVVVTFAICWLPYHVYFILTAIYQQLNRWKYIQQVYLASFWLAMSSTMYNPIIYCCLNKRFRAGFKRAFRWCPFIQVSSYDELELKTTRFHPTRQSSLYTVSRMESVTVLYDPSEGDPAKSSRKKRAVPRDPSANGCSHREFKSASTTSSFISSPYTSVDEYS
Excerpt: WT males (Charles River) were housed in isolation (1 animal per cage), or in groups of 3. Tac2-Cre males (bred in-house) were housed in isolation, or in groups of 2-5. Animals were isolated post-weaning, at 8-16 weeks of age. All cage conditions remained otherwise identical for group-housed mice compared to isolated animals, and mice were housed on the same rack in the same vivarium. Except as otherwise indicated, social isolation was maintained for at least 2 weeks (this period was extended in the case of surgical experiments, i.e. when adequate time for recovery and viral expression levels were required). All mice were between 12-20 weeks of age at the time of behavioral testing. We asked whether Tac2 signaling is required during the period of social isolation to observe the changes in behavior. Mice were administered osanetant daily in their home cage during the two-week social isolation period, but were then tested off-drug. To control for carry-over of the drug from the final homecage administration into the testing period (24 hrs later), an additional group of mice was subjected to two weeks of SIS without drug, and given a single home-cage administration of osanetant 24 hours prior to testing (FIG. 3G).

[3] = biological target: T3, NK3R (Homo sapiens, UniProt P29371); conditions: cited from earlier work; for safety and tolerability in clinical trials: human, Phase I
T3 construct: host or cells: human trial subjects
T3 sequence (P29371 1-465): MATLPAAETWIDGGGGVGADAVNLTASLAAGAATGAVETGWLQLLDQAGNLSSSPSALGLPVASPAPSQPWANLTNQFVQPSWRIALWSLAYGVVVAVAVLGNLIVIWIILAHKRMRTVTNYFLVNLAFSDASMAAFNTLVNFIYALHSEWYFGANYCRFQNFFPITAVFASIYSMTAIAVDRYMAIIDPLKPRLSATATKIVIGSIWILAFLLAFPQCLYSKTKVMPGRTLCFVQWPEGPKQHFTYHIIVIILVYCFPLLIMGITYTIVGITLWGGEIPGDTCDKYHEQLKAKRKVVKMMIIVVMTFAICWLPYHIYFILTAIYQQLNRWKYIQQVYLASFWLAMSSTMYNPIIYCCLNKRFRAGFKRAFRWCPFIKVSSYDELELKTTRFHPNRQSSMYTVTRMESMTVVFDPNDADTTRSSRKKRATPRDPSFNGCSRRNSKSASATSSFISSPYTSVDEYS

T1 sequence (P20309 whole entry Y149C/A239G): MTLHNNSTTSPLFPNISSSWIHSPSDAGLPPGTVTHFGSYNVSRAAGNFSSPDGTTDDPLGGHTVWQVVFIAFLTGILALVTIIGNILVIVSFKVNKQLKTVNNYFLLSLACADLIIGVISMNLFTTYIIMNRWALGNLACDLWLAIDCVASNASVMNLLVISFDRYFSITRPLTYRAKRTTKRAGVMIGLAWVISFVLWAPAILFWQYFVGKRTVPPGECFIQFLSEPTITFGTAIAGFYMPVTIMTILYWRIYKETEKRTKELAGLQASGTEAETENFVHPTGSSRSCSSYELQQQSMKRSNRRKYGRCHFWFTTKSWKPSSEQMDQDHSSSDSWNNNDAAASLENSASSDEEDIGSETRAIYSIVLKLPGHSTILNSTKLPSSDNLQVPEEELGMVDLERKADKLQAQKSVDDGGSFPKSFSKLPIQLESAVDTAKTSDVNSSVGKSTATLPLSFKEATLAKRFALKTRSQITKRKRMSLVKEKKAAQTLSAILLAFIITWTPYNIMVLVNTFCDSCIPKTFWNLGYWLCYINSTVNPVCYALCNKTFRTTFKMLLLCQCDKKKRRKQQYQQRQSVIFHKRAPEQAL

Row | SMILES | SIS-like behavioral effects (increased aggression, persistent freezing to threats) ([1]; group housed Tac2-Cre mice, Tac2 cDNA plus hM3DREADD viruses, CNO in drinking water 2 weeks and 2 mg/kg i.p. before test) | SIS-like behavioral effects ([1]; group housed Tac2-Cre mice, activation of Tac2+ neurons on its own (hM3DREADD, CNO)) | SIS-like behavioral effects ([1]; group housed control mice, mCherry-only virus, treated with CNO) | behavioral effects of 2 weeks of social isolation stress (overall) ([2]; mice) | fighting/aggression on return of SIS mice to housing with cagemates [2] | fighting/aggression on return of SIS mice to housing with cagemates ([2]; listed as Osanetant) | efficacy in schizophrenia, bipolar and panic disorder ([3]; human clinical trials) | efficacy in schizophrenia and major depressive disorder ([3]; human trials, Phase II/III) | safety and tolerability in clinical trials [3] | safety and tolerability in clinical trials ([3]; listed as Osanetant)
1 | C[N+]1([O-])CCN(C2=Nc3cc(Cl)ccc3Nc3ccccc32)CC1 [CNO, clozapine-N-oxide] | recapitulated key behavioral effects of SIS | insufficient | No such effects | – | – | – | – | – | – | –
2 | CC(=O)N(C)C1(c2ccccc2)CCN(CCC[C@]2(c3ccc(Cl)c(Cl)c3)CCCN(C(=O)c3ccccc3)C2)CC1 [osanetant, N-(1-{3-[(3R)-1-benzoyl-3-(3,4-dichlorophenyl)piperidin-3-yl]propyl}-4-phenylpiperidin-4-yl)-N-methylacetamide] | – | – | – | protects and prevents | without any subsequent fighting observed | prevents aggression | lack of efficacy | lack of efficacy | safe and well-tolerated | well tolerated; also recorded: exhibited safety

Source: patent publication US12083109B2, “Neurokinin antagonists and uses thereof” (California Institute of Technology, priority 2017, dated 2024)
